According to PMC10762035, “Molecular basis of human trace amine-associated receptor 1 activation” (Nature Communications, 2024):
Changes are numbered by the printed parent chain. Several values for one entry are separate records, joined by “and”; a condition that tells them apart may be missing. Identical values can stand only once. Like-named read-outs stand apart in the source and are kept apart here.

Columns and labels:
Type in all cases: cell-based
hTA1 C178S = molecular target: T1, hTA1 C178S (Homo sapiens, UniProt Q96RJ0, C178S); experiment: GloSensor cAMP accumulation assay, C178S mutant; settings: for Normalized Luminescence Counts: C178S (N=2), log[Agonist]
T1 construct: expressed in transfected cells; host or cells: HEK293T
T1 sequence (Q96RJ0 1-339 C178S): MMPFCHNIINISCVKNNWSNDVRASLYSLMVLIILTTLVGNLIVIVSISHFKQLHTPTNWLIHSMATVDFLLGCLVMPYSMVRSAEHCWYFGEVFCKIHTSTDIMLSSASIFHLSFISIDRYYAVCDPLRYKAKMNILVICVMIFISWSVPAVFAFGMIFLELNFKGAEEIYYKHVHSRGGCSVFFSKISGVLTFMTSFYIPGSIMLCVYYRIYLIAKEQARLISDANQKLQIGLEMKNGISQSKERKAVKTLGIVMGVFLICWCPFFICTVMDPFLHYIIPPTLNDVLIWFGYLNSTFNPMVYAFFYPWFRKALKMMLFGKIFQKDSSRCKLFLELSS

hTA1 b2N = molecular target: T2, hTA1 b2N (Homo sapiens, UniProt Q96RJ0); experiment: GloSensor cAMP accumulation assay, b2N construct; settings: b2N, n=2
T2 construct: read by me as the first 25 residues of β2AR (N); expressed in transfected cells; host or cells: HEK293T
T2 sequence (Q96RJ0 with tags, fused parts or gaps): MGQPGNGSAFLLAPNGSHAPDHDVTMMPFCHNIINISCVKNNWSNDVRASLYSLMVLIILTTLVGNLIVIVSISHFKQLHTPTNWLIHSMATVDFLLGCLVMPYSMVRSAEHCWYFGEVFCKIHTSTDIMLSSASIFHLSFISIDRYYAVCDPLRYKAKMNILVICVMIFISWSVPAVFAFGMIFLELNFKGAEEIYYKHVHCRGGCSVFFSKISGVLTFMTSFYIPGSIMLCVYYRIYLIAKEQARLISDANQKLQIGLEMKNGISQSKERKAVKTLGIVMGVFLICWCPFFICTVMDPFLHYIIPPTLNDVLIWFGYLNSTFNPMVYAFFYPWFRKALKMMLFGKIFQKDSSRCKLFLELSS

hTA1 V184P = molecular target: T3, hTA1 V184P (Homo sapiens, UniProt Q96RJ0, V184P); experiment: GloSensor cAMP accumulation assay, V184P mutant
T3 construct: expressed in transfected cells; host or cells: HEK293T
T3 sequence (Q96RJ0 1-339 V184P): T1 sequence (Q96RJ0 1-339 C178S) with S178C, V184P

hTA1 S107C = molecular target: T4, hTA1 S107C (Homo sapiens, UniProt Q96RJ0, S107C); experiment: GloSensor cAMP accumulation assay, S107C mutant; settings: S107C;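 further: cells transiently co-expressing receptor and GloSensor biosensor, luminescence read after 30 min agonist exposure at room temperature, concentration-response fitted by nonlinear regression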
T4 construct: expressed in transfected cells; host or cells: HEK293T
T4 sequence (Q96RJ0 1-339 S107C): T1 sequence (Q96RJ0 1-339 C178S) with S107C, S178C

ΔpEC50 values (each mutant value - WT average), Mean (hTA1 C178S; C178S, Asenapine): -0.5777 and -0.5455
Emax values, Mean (hTA1 C178S; C178S, Asenapine, per experiment, 3 replicates): 87.2953 and 116.77
EC50 (hTA1 C178S; C178S, Asenapine, per experiment, 3 replicates, read-out: pEC50 values Mean (converted)): 327 nM and 304 nM
EC50 (hTA1 C178S; C178S, n=2, read-out: EC50): 315 nM
Emax (hTA1 C178S; C178S, n=2, read-out: Span ± SEM (Emax normalized to β-PEA)): 102%
Emax (hTA1 C178S; C178S, relative to β-PEA, read-out: Emax): 102%
EC50 (hTA1 b2N; read-out: EC50): 72.8 nM
Emax (hTA1 b2N; read-out: Span ± SEM (Emax normalized to β-PEA)): 97.39 ± 0.96%
EC50 (hTA1 V184P; V184P, n=2, read-out: EC50): 168 nM
Emax (hTA1 V184P; V184P, n=2, read-out: Span ± SEM (Emax normalized to β-PEA)): 88.3 ± 8.11%
Emax values, Mean (hTA1 V184P; V184S (so in the source), Asenapine, per experiment, 3 replicates): 96.3704 and 80.1474
EC50 (hTA1 V184P; V184S (so in the source), Asenapine, per experiment, 3 replicates, read-out: pEC50 values Mean (converted)): 246 nM and 114 nM
Emax values, Mean (hTA1 S107C; Asenapine, per experiment, 3 replicates): 91.6842 and 105.217
EC50 (hTA1 S107C; Asenapine, per experiment, 3 replicates, read-out: pEC50 values Mean (converted)): 383 nM and 996 nM
EC50 (hTA1 S107C; n=2, read-out: EC50): 618 nM
Emax (hTA1 S107C; n=2, read-out: Span ± SEM (Emax normalized to β-PEA)): 98.5 ± 6.76%
Compound: CN1CC2c3ccccc3Oc3ccc(Cl)cc3C2C1 (centres unmarked) [asenapine]
Normalized Luminescence Counts (hTA1 C178S; Asenapine, M -5): 75.4368 and 92.2127 and 77.6331 and 138.575 and 114.073 and 74.6126
Normalized Luminescence Counts (hTA1 C178S; Asenapine, M -5.522): 79.5957 and 78.8948 and 73.2872 and 121.163 and 122.988 and 72.6381
Normalized Luminescence Counts (hTA1 C178S; Asenapine, M -6): 71.3246 and 64.9226 and 70.9975 and 119.907 and 121.163 and 96.5417
Normalized Luminescence Counts (hTA1 C178S; Asenapine, M -6.522): 41.1373 and 42.2588 and 39.3616 and 54.3289 and 32.5494 and 43.2597
